Assay results: patent US20240300980A1, “HETEROCYCLIC COMPOUNDS AS KRAS INHIBITOR, AND PREPARATION THEREFOR AND USE THEREOF IN TREATMENT” (SHANGHAI KECHOW PHARMA, INC., priority 2021, published 2024)
Read-outs that look alike come from different tables or passages of the source.

Tested on: AGS cells (KRAS^G12D)
Experiment: Detection of cell proliferation in vitro by MTT/MTS method (cell activity experiment)
Assay type: cell-based
Conditions: AGS cells, MTT/MTS, 3 days of drug treatment, read-out: AGS IC50
Summary of the method: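 After 3-day compound exposure (final DMSO 0.5%), viability of AGS (KRAS G12D) cells, plated 1000/well one day before dosing, was measured at 490 nm following 4 h MTT or MTS incubation. IC50 was fitted from dose–effect curves relative to DMSO-treated wells.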

| IC50 [nM] | Structure (SMILES) | IC50 (Homo sapiens, AGS, 72 h) [nM] |
| --- | --- | --- |
| – | Cc1cc(N)nc(-c2ncc3c(N4C[C@H]5CC[C@@H](C4)N5)nc(OCC4(CN5CCCC5)CC4)nc3c2F)c1C(F)(F)F [Example 8, 6-(4-((1R,5S)-3,8-diazabicyclo[3.2.1]octan-3-yl)-8-fluoro-2-((1-(pyrrolidin-1-ylmethyl)cyclopropyl)methoxy)pyrido[4,3-d]pyrimidin-7-yl)-4-methyl-5-(trifluoromethyl) pyridin-2-amine] | > 1000 |
| – | Oc1cc2c(c(-c3ncc4c(N5C[C@H]6CC[C@@H](C5)N6)nc(OC[C@@]56CCCN5C[C@H](F)C6)nc4c3F)c1)C(CCF)CC2 (stereo partly drawn) [Example 259, 7-(4-((1R,5S)-3,8-diazabicyclo[3.2.1]octan-3-yl)-8-fluoro-2-(((2R,7aS)-2-fluorotetrahydro-1H-pyrrolizin-7a(5H)-yl)methoxy)pyrido[4,3-d]pyrimidin-7-yl)-1-(2-fluoroethyl)-2,3-dihydro-1H-inden-5-ol] | 2630 |
| – | C#Cc1c(F)ccc2cc(O)cc(-c3c(CCC#N)cc4c(N5C[C@H]6CC[C@@H](C5)N6)nc(OC[C@@]56CCCN5C[C@H](F)C6)nc4c3F)c12 [Example 378, 3-(4-((1R,5S)-3,8-diazabicyclo[3.2.1]octan-3-yl)-7-(8-ethynyl-7-fluoro-3-hydroxynaphthalen-1-yl)-8-fluoro-2-(((2R,7aS)-2-fluorotetrahydro-1H-pyrrolizin-7a(5H)-yl)methoxy)quinazolin-6-yl)propanenitrile] | 160 |
| – | C#Cc1cccc2cc(O)cc(-c3ncc4c(N5CCC6(CC5)CO[C@@H](C)[C@H]6N)nc(OC[C@@]56CCCN5C[C@H](F)C6)nc4c3F)c12 [Example 56, 4-(4-((3S,4S)-4-amino-3-methyl-2-oxa-8-azaspiro[4.5]decan-8-yl)-8-fluoro-2-(((2R, 7aS)-2-fluorotetrahydro-1H-pyrrolizin-7a(5H)-yl)methoxy)pyrido[4,3-d]pyrimidin-7-yl)-5-ethynylnaphthalen-2-ol] | > 2500 |
| – | Oc1cc2c(c(-c3ncc4c(N5C[C@H]6CC[C@@H](C5)N6)nc(OC[C@@]56CCCN5C[C@H](F)C6)nc4c3F)c1)CCCC2 [Example 271, 4-(4-((1R,5S)-3,8-diazabicyclo[3.2.1]octan-3-yl)-8-fluoro-2-(((2R,7aS)-2-fluorotetrahydro-1H-pyrrolizin-7a(5H)-yl)methoxy)pyrido[4,3-d]pyrimidin-7-yl)-5,6,7,8-tetrahydronaphthalen-2-ol] | 11 |
| – | CCc1cccc2cc(O)cc(-c3ncc4c(N5C[C@H]6CC[C@@H](C5)N6)nc(OCC5(CN6CCCC6)CC5)nc4c3F)c12 [Example 4, 4-(4-((1R,5S)-3,8-diazabicyclo[3.2.1]octan-3-yl)-8-fluoro-2-((1-(pyrrolidin-1-ylmethyl)cyclopropyl)methoxy)pyrido[4,3-d]pyrimidin-7-yl)-5-ethylnaphthalen-2-ol] | 11 |
| – | C#Cc1c(F)ccc2cc(O)cc(-c3c(Cl)cc4c(N5C[C@H]6CC[C@@H](C5)N6)nc(OC[C@@]56CCCN5C[C@H](F)C6)nc4c3OCC(F)(F)F)c12 [Example 331, 4-(4-((1R,5S)-3,8-diazabicyclo[3.2.1]octan-3-yl)-6-chloro-2-(((2R,7aS)-2-fluorotetrahydro-1H-pyrrolizin-7a(5H)-yl)methoxy)-8-(2,2,2-trifluoroethoxy)quinazolin-7-yl)-5-ethynyl-6-fluoronaphthalen-2-ol] | 823 |
| – | CCc1c(F)ccc2cc(O)cc(N3CCc4c(nc(OC[C@@]56CCCN5C[C@H](F)C6)nc4N4C[C@H]5CC[C@@H](C4)N5)C3)c12 [Example 203, 4-(4-((1R,5S)-3,8-diazabicyclo[3.2.1]octan-3-yl)-2-(((2R,7aS)-2-fluorotetrahydro-1H-pyrrolizin-7a(5H)-yl)methoxy)-5,8-dihydropyrido[3,4-d]pyrimidin-7(6H)-yl)-5-ethyl-6-fluoronaphthalen-2-ol] | 17 |
| – | C#Cc1c(F)ccc2cc(O)cc(-c3ncc4c(N5C[C@H]6CC[C@@H](C5)N6)nc(OCC56CC5CN(C)C6)nc4c3F)c12 (stereo partly drawn) [Example 76, 4-(4-((1R,5S)-3,8-diazabicyclo[3.2.1]octan-3-yl)-8-fluoro-2-((3-methyl-3-azabicyclo [3.1.0]hexan-1-yl)methoxy)pyrido[4,3-d]pyrimidin-7-yl)-5-ethynyl-6-fluoronaphthalen-2-ol] | > 2500 |
| > 2500 | C#Cc1c(F)ccc2cc(O)cc(-c3ccc4c(N5C[C@H]6CC[C@@H](C5)[C@@H]6F)nc(OC[C@@]56CCCN5C[C@H](F)C6)nc4c3F)c12 [Example 123, 5-ethynyl-6-fluoro-4-(8-fluoro-4-((1R,5S, 8R)-8-fluoro-3-azabicyclo[3.2.1]octan-3-yl)-2-(((2R,7aS)-2-fluorotetrahydro-1H-pyrrolizin-7a(5H)-yl)methoxy)quinazolin-7-yl)naphthalen-2-ol] | – |
| – | CCC1CCCc2cc(O)cc(-c3ccc4c(N5C[C@H]6CC[C@@H](C5)N6)nc(OC[C@@]56CCCN5C[C@H](F)C6)nc4c3F)c21 (stereo partly drawn) [Example 289, 4-(4-((1R,5S)-3,8-diazabicyclo[3.2.1]octan-3-yl)-8-fluoro-2-(((2R,7aS)-2-fluorotetrahydro-1H-pyrrolizin-7a(5H)-yl)methoxy)quinazolin-7-yl)-5-ethyl-5,6,7,8-tetrahydronaphthalen-2-ol] | 15 |
| – | CC1CCCc2cc(O)cc(-c3ncc4c(NCC5(N(C)C)CCC5)nc(OC[C@@]56CCCN5C[C@H](F)C6)nc4c3F)c21 (stereo partly drawn) [Example 421, 4-(4-(((1-(dimethylamino)cyclobutyl)methyl)amino)-8-fluoro-2-(((2R,7aS)-2-fluorotetrahydro-1H-pyrrolizin-7a(5H)-yl)methoxy)pyrido[4,3-d]pyrimidin-7-yl)-5-methyl-5,6,7,8-tetrahydronaphthalen-2-ol] | 26 |
| – | CC[C@@H]1CCCc2cc(O)cc(-c3ncc4c(N5CC6CCC(C5)N6)nc(OC[C@@]56CCCN5C[C@H](F)C6)nc4c3F)c21 (single isomer, unassigned) [Example 228, (R)-4-(4-((1R,5S)-3,8-diazabicyclo[3.2.1]octan-3-yl)-8-fluoro-2-(((2R,7aS)-2-fluorotetrahydro-1H-pyrrolizin-7a(5H)-yl)methoxy)pyrido[4,3-d]pyrimidin-7-yl)-5-ethyl-5,6,7,8-tetrahydronaphthalen-2-ol or (S)-4-(4-((1R,5S)-3,8-diazabicyclo[3.2.1]octan-3-yl)-8-fluoro-2-(((2R,7aS)-2-fluorotetrahydro-1H-pyrrolizin-7a(5H)-yl)methoxy)pyrido[4,3-d]pyrimidin-7-yl)-5-ethyl-5,6,7,8-tetrahydronaphthalen-2-ol] | 1090 |
| – | CCc1cccc2cc(O)cc(-c3ccc4c(N5C[C@H]6CC[C@@H](C5)N6)c(C#N)c(OC[C@@]56CCCN5C[C@H](F)C6)nc4c3)c12 [Example 174, 4-((1R,5S)-3,8-diazabicyclo[3.2.1]octan-3-yl)-7-(8-ethyl-3-hydroxynaphthalen-1-yl)-2-(((2R,7aS)-2-fluorotetrahydro-1H-pyrrolizin-7a(5H)-yl)methoxy)quinoline-3-carbonitrile] | 1460 |
| – | CC1CCCc2cc(O)cc(-c3c(-c4cn[nH]c4)cc4c(N5C[C@H]6CC[C@@H](C5)N6)nc(OC[C@@]56CCCN5C[C@H](F)C6)nc4c3F)c21 (stereo partly drawn) [Example 376, 4-(4-((1R,5S)-3,8-diazabicyclo[3.2.1]octan-3-yl)-8-fluoro-2-(((2R,7aS)-2-fluorotetrahydro-1H-pyrrolizin-7a(5H)-yl)methoxy)-6-(1H-pyrazol-4-yl)quinazolin-7-yl)-5-methyl-5,6,7,8-tetrahydronaphthalen-2-ol] | 100 |
| – | CC1OCCc2cc(O)cc(-c3ncc4c(N5C[C@H]6CC[C@@H](C5)N6)nc(OC[C@@]56CCCN5C[C@H](F)C6)nc4c3F)c21 (stereo partly drawn) [Example 356, 8-(4-((1R,5S)-3,8-diazabicyclo[3.2.1]octan-3-yl)-8-fluoro-2-(((2R,7aS)-2-fluorotetrahydro-1H-pyrrolizin-7a(5H)-yl)methoxy)pyrido[4,3-d]pyrimidin-7-yl)-1-methylisochroman-6-ol] | 21 |
| – | Nc1cc2ccc(F)c(F)c2c(-c2ncc3c(N4C[C@H]5CC[C@@H](C4)N5)nc(OC[C@@]45CCCN4C[C@H](F)C5)nc3c2F)n1 [Example 38, 1-(4-((1R,5S)-3,8-diazabicyclo[3.2.1]octan-3-yl)-8-fluoro-2-(((2R,7aS)-2-fluorotetrahydro-1H-pyrrolizin-7a(5H)-yl)methoxy)pyrido[4,3-d]pyrimidin-7-yl)-7,8-difluoroisoquinolin-3-amine] | > 2500 |
| – | C#Cc1c(F)ccc2cc(O)cc(-c3c(F)c4nc(OC[C@@]56CCCN5C[C@H](F)C6)nc(N5C[C@H]6CC[C@@H](C5)N6)c4c4cncn34)c12 [Example 398, 4-(1-((1R,5S)-3,8-diazabicyclo[3.2.1]octan-3-yl)-5-fluoro-3-(((2R,7aS)-2-fluorotetrahydro-1H-pyrrolizin-7a(5H)-yl)methoxy)imidazo[1′,5′:1,2]pyrido[4,3-d]pyrimidin-6-yl)-5-ethynyl-6-fluoronaphthalen-2-ol] | 50 |
| – | C#Cc1c(F)ccc2cc(O)cc(-c3ccc4c(N5CC(C(C)(C)N)C5)nc(OC[C@@]56CCCN5C[C@H](F)C6)nc4c3F)c12 [Example 212, 4-(4-(3-(2-aminopropan-2-yl)azetidin-1-yl)-8-fluoro-2-(((2R,7aS)-2-fluorotetrahydro-1H-pyrrolizin-7a(5H)-yl)methoxy)quinazolin-7-yl)-5-ethynyl-6-fluoronaphthalen-2-ol] | 419 |
| – | C#Cc1c(F)ccc2cc(O)cc(-c3ccc4c(N5CC6CC(C5)N6)nc(OC[C@@]56CCCN5C[C@H](F)C6)nc4c3F)c12 [Example 107, 4-(4-(3,6-diazabicyclo [3.1.1]heptan-3-yl)-8-fluoro-2-(((2R,7aS)-2-fluorotetrahydro-1H-pyrrolizin-7a(5H)-yl)methoxy)quinazolin-7-yl)-5-ethynyl-6-fluoronaphthalen-2-ol] | 105 |
| – | C#Cc1c(F)ccc2cc(O)cc(-c3ccc4c(N5CC(C(N)=O)C5)nc(OC[C@@]56CCCN5C[C@H](F)C6)nc4c3F)c12 [Example 215, 1-(7-(8-ethynyl-7-fluoro-3-hydroxynaphthalen-1-yl)-8-fluoro-2-(((2R,7aS)-2-fluorotetrahydro-1H-pyrrolizin-7a(5H)-yl)methoxy)quinazolin-4-yl)azetidine-3-carboxamide] | > 2500 |
